Experimental findings from patent publication US20180214395A1 (priority 2017, published 2018) are described below.

The structures appear in SMILES notation. “And” between values parts separate entries of the source, which are not always exact repeats. Equal values may be shown once.

The nature of the assay: Serum glucose (colorimetric kit) in MAD 25 mg subjects. Type of assay: in vivo, human. As to conditions: 25 mg per day for 10 days; for Mean serum glucose change vs baseline: six treated subjects; for serum glucose, individual subjects: hydrochloride.

On to `CCC(=O)C(C[C@H](C)N(C)C)(c1ccccc1)c1ccccc1` [d-methadone], for which the “Mean serum glucose change vs baseline” value is, setting by setting: (day 10) −0.08 mmol/I; (day 12) −0.43 mmol/I. Besides, the “serum glucose, individual subjects” value reads like this: (Day-10) 3.2 mmol/I and 4.9 mmol/I; (Day-12) 4.9 mmol/I (3×) and 4.1 mmol/I.
